From patent US4276297A, “Pyridylaminotriazole therapeutic agents” (Pfizer Inc., priority 1979, dated 1981) come the findings set out here.

One data set has as its system gastric acid secretion. The data set can be described thus: Inhibition of pentagastrin-induced gastric acid secretion in fasted Heidenhain pouch dogs. The class given is in vivo. The following applies: intravenous; for inhibition in vivo at 1 mg/kg / inhibition in vivo at 5 mg/kg / inhibition in vivo at 10 mg/kg: Canis lupus familiaris, 1.5 h, 90 minutes after start of pentagastrin infusion, lowest acid output after drug vs mean acid output immediately prior, read-out: Acid Antisecretory Activity (% Inhibition). As to the method:
The activity of the compounds of the present invention, as anti-ulcer agents, is determined by their ability to pass at least one of the following two standard biological and/or pharmacological tests, viz., (1) measuring their ability to antagonise those particular actions of histamine which are not blocked by an antihistamine such as mepyramine, i.e., a measure of their ability to block certain histamine H2 -receptor sites; and (2) measuring their ability to inhibit gastric acid secretion in the stomachs of Heidenhain pouch dogs that had previously been treated with pentagastrin in order to stimulate the secretion of said acid (in their stomachs) for these particular purposes.
The following 3-amino-5-(4-pyridyl)-1,2,4-triazole final products of Examples I-V, VII-XII, XIV-XVI, XVIII-XX, XXII-XXIII, XXV-XXVI, XXVIII and XXXII, respectively, were tested for antiulcer activity in terms of their ability to inhibit gastric acid secretion in groups of fasted Heidenhain pouch dogs. No anesthetic was used in this study. The animals were first administered pentagastrin in order to stimulate acid output in their stomachs by the continuous infusion of said drug into a superified leg vein at doses earlier determined to stimulate near maximal acid output from the gastric pouch. Gastric juice was then collected at 30-minute intervals following the start of a pentagastrin infusion amd measured to the nearest one-tenth of a […] (0.1 ml.). Ten collections were taken for each dog during an experiment. Acid concentration was then determined by titrating 1.0 ml. of gastric juice to a pH value of pH 7.4 with 0.1 N aqueous sodium hydroxide, using an Autoburette and a glass electrode pH meter (Radiometer) for these purposes. The animals were then administered the test compounds at 10, 5.0 and 1.0 mg./kg., respectively, or the control vehicle alone, via the intravenous route of administration,at 90 minutes following the start of the pentagastrin infusion. Gastric antisecretory effects were thereafter calculated by comparing the lowest acid output after drug administration with the mean acid output immediately prior to same and the results obtained in this manner are reported in the following table, where the entries given for each individual compound are expressed in terms of percent inhibition (%) at the dose level indicated: […]

Data set [1] can be described thus: Signs of toxic side effects in Heidenhain pouch dogs after intravenous dosing. The settings on record: 1.0 mg./kg. to 10 mg./kg. The format is in vivo. The source says:
As previously indicated, the 3-amino-5-(4-pyridyl)-1,2,4-triazole compounds of this invention are all readily adapted to therapeutic use as histamine H2 -receptor inhibitors for the control of peptic ulcers, especially in view of their ability to inhibit the secretion of gastric acid in the body to a statistically significant degree. […] The other compounds of this invention also cause similar results. Furthermore, all the herein described compounds of this invention can be administered orally, for the present purposes at hand, without causing any significant untoward pharmacological side reactions to occur in the subject to whom they are so administered. In general, these compounds are ordinarily administered at dosage levels ranging from about 0.5 mg. to about 50 mg. per kg. of body weight per day, although variations will necessarily occur depending upon the condition and individual response of the subject being treated and the particular type of pharmaceutical formulation chosen.

In the case of `CCCNc1cc(-c2nc(N)n[nH]2)ccn1` [Example I, 3-amino-5-{2-[N-mono(n-propyl)amino]-4-pyridyl}-1,2,4-triazole], in the data set with gastric acid secretion, the inhibition in vivo at 1 mg/kg was 33% and the inhibition in vivo at 5 mg/kg came out at 64%.
Turning to `CCCCCCNc1cc(-c2nc(N)n[nH]2)ccn1` [Example II, 3-amino-5-{2-[N-mono(n-hexyl)amino]-4-pyridyl}-1,2,4-triazole], in the data set with gastric acid secretion, the inhibition in vivo at 1 mg/kg was 0% and the inhibition in vivo at 10 mg/kg was 40%.
On to `CCCCCCCCCCNc1cc(-c2nc(N)n[nH]2)ccn1` [Example III, 3-amino-5-{2-[N-mono(n-decyl)amino]-4-pyridyl}-1,2,4-triazole], for which the inhibition in vivo at 10 mg/kg in the data set on gastric acid secretion worked out at 14%.
Turning to `C=CCNc1cc(-c2nc(N)n[nH]2)ccn1` [Example IV], in the data set on gastric acid secretion, the inhibition in vivo at 1 mg/kg was determined as 31%.
As to `CCN(C)c1cc(-c2nc(N)n[nH]2)ccn1` [Example IX, 3-amino-5-[2-(N-methyl-N-ethylamino)-4-pyridyl]-1,2,4-triazole], the inhibition in vivo at 1 mg/kg with gastric acid secretion was 53%.
Take `Nc1n[nH]c(-c2ccnc(NCCO)c2)n1` [Example V, 3-amino-5-{2-[N-mono(β-hydroxyethyl)amino]-4-pyridyl}-1,a,4-triazole]: in the data set on gastric acid secretion, the inhibition in vivo at 1 mg/kg worked out at 23% and the inhibition in vivo at 10 mg/kg stood at 34%.
For `COCCNc1cc(-c2nc(N)n[nH]2)ccn1` [Example VII, 3-amino-5-{2-[N-mono(β-methoxyethyl)amino]-4-pyridyl}-1,2,4-triazole], the inhibition in vivo at 1 mg/kg with gastric acid secretion was found to be 11%.
Regarding `CN(C)c1cc(-c2nc(N)n[nH]2)ccn1` [Example VIII, 3-amino-5-[2-(N,N-dimethylamino)-4-pyridyl]-1,2,4-triazole], in the data set on gastric acid secretion, the inhibition in vivo at 1 mg/kg amounted to 48%, the inhibition in vivo at 5 mg/kg is 80% and the inhibition in vivo at 10 mg/kg is 96%.
As to `CCN(CC)c1cc(-c2nc(N)n[nH]2)ccn1` [Example X, 3-amino-5-[2-(N,N-diethylamino)-4-pyridyl]-1,2,4-triazole], the inhibition in vivo at 5 mg/kg in the data set with gastric acid secretion is 68%.
Turning to `CCNc1cc(-c2nc(NCC)n[nH]2)ccn1` [Example XI, 3-(monoethylamino)-5-[2-(N-monoethylamino)-4-pyridyl]-1,2,4-triazole], the inhibition in vivo at 1 mg/kg in the data set with gastric acid secretion is 38%.
In the case of `Nc1n[nH]c(-c2ccnc(NCCc3ccccc3)c2)n1` [Example XII, 3-amino-5-{2-[N-mono(β-phenylethyl)amino]-4-pyridyl}-1,2,4-triazole], in the data set with gastric acid secretion, the inhibition in vivo at 1 mg/kg is 18% and the inhibition in vivo at 10 mg/kg came to 50%.
Turning to `Nc1n[nH]c(-c2ccnc(NCc3ccccc3)c2)n1` [Example XIV, 3-amino-5-[2-(N-monobenzylamino)-4-pyridyl]-1,2,4-triazole], in the data set on gastric acid secretion, the inhibition in vivo at 1 mg/kg was determined as 21% and the inhibition in vivo at 10 mg/kg came to 72%.
With `CNc1cc(-c2nc(N)n[nH]2)ccn1` [Example XIX, 3-amino-5-[2-(N-monomethylamino)-4-pyridyl]-1,2,4-triazole], the inhibition in vivo at 1 mg/kg with gastric acid secretion stood at 50%.
As to `Nc1n[nH]c(-c2ccnc(NCc3ccc(Cl)cc3)c2)n1` [Example XV, 3-amino-5-{2-[N-mono(p-chlorobenzyl)amino]-4-pyridyl}-1,2,4-triazole], in the data set with gastric acid secretion, the inhibition in vivo at 1 mg/kg amounted to 21% and the inhibition in vivo at 10 mg/kg turned out to be 62%.
With `Nc1cc(-c2nc(N)n[nH]2)ccn1` [Example XVIII, 3-amino-5-(2-aminopyridyl)-1,2,4-triazole monohydrate], in the data set on gastric acid secretion, the inhibition in vivo at 1 mg/kg is 30%, the inhibition in vivo at 5 mg/kg amounted to 86% and the inhibition in vivo at 10 mg/kg was 94%.
Regarding `Cc1ccc(CNc2cc(-c3nc(N)n[nH]3)ccn2)cc1` [Example XVI], the inhibition in vivo at 5 mg/kg in the data set on gastric acid secretion amounted to 33%.
`CCNc1cc(-c2nc(N)n[nH]2)ccn1` [Example XX, 3-amino-5-[2-(N-monoethylamino)-4-pyridyl]-1,2,4-triazole]: in data set [1], the “signs of toxic side effects” value is on record as “without showing any substantial signs of toxic side effects”. In the data set on gastric acid secretion, the inhibition in vivo at 1 mg/kg amounted to 51%, the inhibition in vivo at 5 mg/kg came to 89% and the inhibition in vivo at 10 mg/kg came to 93%. Further, the “inhibit the pentagastrin-induced secretion of gastric acid (in words)” value in the data set on gastric acid secretion (1.0 mg./kg. to 10 mg./kg., Heidenhain pouch dogs) is recorded as “consistently inhibit the pentagastrin-induced secretion of gastric acid from stomachs of Heidenhain pouch dogs to a significantly high degree”.
Take `CCCCNc1cc(-c2nc(N)n[nH]2)ccn1` [Example XXII, 3-amino-5-{2-[N-mono(n-butyl)amino]-4-pyridyl}-1,2,4-triazole]: in the data set with gastric acid secretion, the inhibition in vivo at 1 mg/kg came to 29%.
`CC(C)Nc1cc(-c2nc(N)n[nH]2)ccn1` [Example XXIII, 3-amino-5-[2-(N-monoisopropylamino)-4-pyridyl]-1,2,4-triazole]: in the data set with gastric acid secretion, the inhibition in vivo at 1 mg/kg turned out to be 35% and the inhibition in vivo at 5 mg/kg was 52%.
Turning to `Nc1n[nH]c(-c2ccnc(NCC(F)(F)F)c2)n1` [Example XXV, 3-amino-5-{2-[N-mono(2,2,2-trifluoroethyl)amino]-4-pyridyl}-1,2,4-triazole], the inhibition in vivo at 1 mg/kg in the data set with gastric acid secretion stood at 10%.
As for `CCNc1cc(-c2nc(NC)n[nH]2)ccn1` [Example XXVI, 3-(N-monomethylamino)-5-[2-(N-monoethylamino)-4-pyridyl]-1,2,4-triazole], in the data set on gastric acid secretion, the inhibition in vivo at 1 mg/kg is 32% and the inhibition in vivo at 5 mg/kg was determined as 64%.
`Cc1ccc(CNc2cc(-c3nc(N)n[nH]3)ccn2)cc1C` [Example XXVIII, 3-amino-5-{2-[N-mono(3',4'-dimethylbenzyl)amino]-4-pyridyl}-1,2,4-triazole]: the inhibition in vivo at 5 mg/kg with gastric acid secretion stood at 49%.
Turning to `CN(Cc1ccccc1)c1cc(-c2nc(N)n[nH]2)ccn1` [Example XXXII, 3-amino-5-[2-(N-methyl-N-benzylamino)-4-pyridyl]-1,2,4-triazole], the inhibition in vivo at 10 mg/kg in the data set on gastric acid secretion worked out at 25%.
